≈ marks a conversion by molar mass, not a printed value. Like-named read-outs stand apart in the source and are kept apart here.
Experiments:
[1] = system: human allogenic MLR (peripheral blood lymphocytes); assay: human allogenic MLR-suppressive activity; assay type: cell-based; conditions: for inhibition at 0.0001 µg/mL / inhibition at 0.001 µg/mL / inhibition at 0.01 µg/mL / inhibition at 0.1 µg/mL / inhibition at 1 µg/mL / inhibition at 10 µg/mL / inhibition at 10 pg/mL: Homo sapiens, read-out: Suppression; for inhibition at 0.0001 µg/mL / inhibition at 0.001 µg/mL / inhibition at 0.01 µg/mL / inhibition at 0.1 µg/mL / inhibition at 1 µg/mL / inhibition at 10 µg/mL / inhibition at 10 pg/mL / IC50: Lymphocyte; for IC50: human allogenic MLR, read-out: 50%-inhibition concentration (IC50)
Method: The human allogenic MLR-suppressive activity was assayed as follows:
Human peripheral blood lymphocytes obtained by Ficoll-Paque density gradient centrifugation of normal human peripheral blood were suspended in the RPMI1640 medium supplemented with 10% FCS, placed in plastic dishes, and incubated at 37° C. in an atmosphere of 5% carbon dioxide for 2 hours. After termination of incubation, the supernatant after gentle pipetting was harvested and centrifuged (1000 rpm, for 5 minutes) to obtain plastic-nonadherent cells. The plastic-nonadherent cells were allowed to pass through a nylon-wool column to give nylon-nonadherent cells, and the concentration of the cell suspension was adjusted to 4×10^6 cells/ml by using the RPMI1640 culture medium supplemented with 10% FCS, and used as the responder cell suspension.
The plastic-adherent cells were removed from the plastic dish by vigorous pipetting after addition of phosphate buffered saline supplemented with 5% FCS and 0.02% disodium ethylenediamine-tetraacetic acid (EDTA). The plastic-adherent cells were treated with 40 μg/ml of mitomycin C at 37° C. for 60 minutes, washed three times, and suspended to the concentration of 4×10^6 cells/ml in the RPMI1640 culture medium supplemented with 10% FCS. The resultant suspension was used as the stimulator cell suspension. Fifty μl of the responder cell suspension from the donor A or C was mixed with 50 μl of the stimulator cell suspension from the donor B or D, to which 100 μl of the test substance was added, and cultured at 37° C. in the an atmosphere 5% carbon dioxide for 5 days.
After termination of the culture, 1.0 μCi/well of ^3 H-thymidine was added, and after 18 hours of culture, the cells were harvested by a cell-harvester. The radioactivity incorporated into the cells was measured by a liquid scintillation counter as the index of blastogenic response of lymphocytes in human allogenic MLR. The suppression of human allogenic MLR was evaluated by calculating the percent suppression by the following formula. [formula]

[2] = system: IL2-dependent mouse cell line CTLL-2; assay: suppression of IL-2 induced 3H-thymidine incorporation of CTLL-2; assay type: cell-based; conditions: for inhibition at 0.01 µg/mL / inhibition at 0.1 µg/mL / inhibition at 1 µg/mL / inhibition at 10 µg/mL: Mus musculus; for inhibition at 0.01 µg/mL / inhibition at 0.1 µg/mL / inhibition at 10 µg/mL: read-out: Suppression
Method: IL2-dependent mouse cell line CTLL-2 cells were suspended in the RPMI1640 culture medium supplemented with 30% FCS to a concentration of 2×10^5 cells/ml. The suspension (50 μl) and 50 μl of concanavalin A-stimulated rat spleen cell culture supernatants containing IL2 were added to each well of 96-well microculture plates in which 100 μl of the test substance had been placed. After culturing at 37° C. in an atmosphere of 5% carbon dioxide for 20, 44, or 68 hours, 0.5 μCi/well of ^3 H-thymidine was added, and cultured for 4 hours under the same conditions. After termination of the culture, the cells were harvested by a cell harvester, and the radioactivity incorporated into the cells was measured by a liquid scintillation counter.

[3] = body weight, wet weight of thymus and spleen, number of spleen cells in SRBC-immunized mice; assay type: in vivo, mouse; conditions: Table 12B; 10 mg/kg/day
Method: (§1) Males 5- to 7-week-old BALB/c mice were immunized with sheep red blood cells (SRBC), and the spleen was resected three or four days later. By counting the plaque forming cells (PFC), suppressive effect on the production of the anti-sheep red blood cell antibody was examined as follows.
(§2) BALB/c mice were immunized with SRBC (1×10^7 cells/mouse, intravenous administration), and ISP-I in the Example 1 was administered intraperitoneally for 4 consecutive days from the day of immunization. Four days after immunization (the next day of the final administration), the spleen was resected and the anti-sheep red blood cell antibody-producing cells were determined by the direct plaque method. At the same time the body weight of the mouse, wet weight of the thymus and the spleen, and numbers of spleen cells were also determined.
as §2, with “(5×10^7” for “(1×10^7”, “the compound” for “ISP-I”, “5” for “1”, “resected,” for “resected”, “time,” for “time”

[4] = system: anti-sheep red blood cell antibody production in BALB/c mice; assay: suppression of mouse anti-sheep red blood cell antibody production (PFC); assay type: in vivo; conditions: Table 12B; 10 mg/kg/day
Method: as §1, §2
as §2, with “(5×10^7” for “(1×10^7”, “the compound” for “ISP-I”, “5” for “1”, “resected,” for “resected”, “time,” for “time”

[5] = 72 hrs, second run (control 30168 cpm), 0.1 μg/ml
[6] = 72 hrs, second run (control 30168 cpm), 1 μg/ml
[7] = CTLL-2, 72 hrs, second run (control 30168 cpm), 0.1 μg/ml
[8] = CTLL-2, 72 hrs, second run (control 30168 cpm), 1 μg/ml

CCCCCCC(=O)CCCCCC/C=C/CC1OC(=O)C(N)(CO)C1O (centres unmarked) [Example 4]
inhibition at 0.0001 µg/mL ([1]; donor A/donor B, 0.0001 μg/ml): 32.3%
inhibition at 0.001 µg/mL ([1]; donor A/donor B, 0.001 μg/ml): 47.4%
inhibition at 0.01 µg/mL ([1]; donor A/donor B, 0.01 μg/ml): 65.8%
inhibition at 0.1 µg/mL ([1]; donor A/donor B, 0.1 μg/ml): 89.2%
inhibition at 1 µg/mL ([1]; donor A/donor B, 1 μg/ml): 83.5%
inhibition at 10 µg/mL ([1]; donor A/donor B, 10 μg/ml): 86.4%
inhibition at 10 pg/mL ([1]; donor C/donor D, 0.00001 μg/ml): 55.8%
inhibition at 0.0001 µg/mL ([1]; donor C/donor D, 0.0001 μg/ml): 61.9%
inhibition at 0.001 µg/mL ([1]; donor C/donor D, 0.001 μg/ml): 58.5%
inhibition at 0.01 µg/mL ([1]; donor C/donor D, 0.01 μg/ml): 80.8%
inhibition at 0.1 µg/mL ([1]; donor C/donor D, 0.1 μg/ml): 84.9%
inhibition at 1 µg/mL ([1]; donor C/donor D, 1 μg/ml): 79.2%
IC50 [1]: 0.79 ng/mL (≈ 2.06 nM)
3H-thymidine uptake ([1]; donor A/donor B, 0.0001 μg/ml): 16963 cpm
3H-thymidine uptake ([1]; donor A/donor B, 0.001 μg/ml): 13715 cpm
3H-thymidine uptake ([1]; donor A/donor B, 0.01 μg/ml): 9754 cpm
3H-thymidine uptake ([1]; donor A/donor B, 0.1 μg/ml): 4734 cpm
3H-thymidine uptake ([1]; donor A/donor B, 1 μg/ml): 5954 cpm
3H-thymidine uptake ([1]; donor A/donor B, 10 μg/ml): 5332 cpm
3H-thymidine uptake ([1]; donor C/donor D, 0.00001 μg/ml): 7746 cpm
3H-thymidine uptake ([1]; donor C/donor D, 0.0001 μg/ml): 6700 cpm
3H-thymidine uptake ([1]; donor C/donor D, 0.001 μg/ml): 7278 cpm
3H-thymidine uptake ([1]; donor C/donor D, 0.01 μg/ml): 3417 cpm
3H-thymidine uptake ([1]; donor C/donor D, 0.1 μg/ml): 2708 cpm
3H-thymidine uptake ([1]; donor C/donor D, 1 μg/ml): 3703 cpm
3H-thymidine uptake ([2]; 24 hrs, 0.01 μg/ml): 5907 cpm
3H-thymidine uptake ([2]; 24 hrs, 0.1 μg/ml): 4240 cpm
3H-thymidine uptake ([2]; 24 hrs, 1 μg/ml): 5400 cpm
3H-thymidine uptake ([2]; 24 hrs, 10 μg/ml): 2602 cpm
3H-thymidine uptake ([2]; 48 hrs, 0.01 μg/ml): 21930 cpm
3H-thymidine uptake ([2]; 48 hrs, 0.1 μg/ml): 9202 cpm
3H-thymidine uptake ([2]; 48 hrs, 1 μg/ml): 7202 cpm
3H-thymidine uptake ([2]; 48 hrs, 10 μg/ml): 7465 cpm
3H-thymidine uptake ([2]; 72 hrs, 0.01 μg/ml, control 78515 cpm): 69355 cpm
3H-thymidine uptake ([2]; 72 hrs, 0.1 μg/ml, control 78515 cpm): 16705 cpm
3H-thymidine uptake ([2]; 72 hrs, 1 μg/ml, control 78515 cpm): 4088 cpm
3H-thymidine uptake ([2]; 72 hrs, 10 μg/ml, control 78515 cpm): 11806 cpm
inhibition at 0.01 µg/mL ([2]; CTLL-2, 48 h): 13.3%
inhibition at 0.01 µg/mL ([2]; CTLL-2, 24 hrs, 0.01 μg/ml): 11.8%
inhibition at 0.1 µg/mL ([2]; CTLL-2, 24 hrs, 0.1 μg/ml): 37.5%
inhibition at 1 µg/mL ([2]; CTLL-2, 24 hrs, 1 μg/ml): 19.6%
inhibition at 10 µg/mL ([2]; CTLL-2, 24 hrs, 10 μg/ml): 62.7%
inhibition at 0.1 µg/mL ([2]; CTLL-2, 48 hrs, 0.1 μg/ml): 64.6%
inhibition at 1 µg/mL ([2]; CTLL-2, 48 hrs, 1 μg/ml): 72.7%
inhibition at 10 µg/mL ([2]; CTLL-2, 48 hrs, 10 μg/ml): 71.6%
inhibition at 0.01 µg/mL ([2]; CTLL-2, 72 hrs, 0.01 μg/ml, control 78515 cpm): 11.8%
inhibition at 0.1 µg/mL ([2]; CTLL-2, 72 hrs, 0.1 μg/ml, control 78515 cpm): 79.4%
inhibition at 1 µg/mL ([2]; CTLL-2, 72 hrs, 1 μg/ml, control 78515 cpm): 95.6%
inhibition at 10 µg/mL ([2]; CTLL-2, 72 hrs, 10 μg/ml, control 78515 cpm): 85.7%

CCCCCCC(=O)CCCCCCCCCC1OC(=O)C(N)(CO)C1O (centres unmarked) [Example 7]
3H-thymidine uptake [2, 5]: 37960 cpm
3H-thymidine uptake [2, 6]: 2088 cpm
inhibition at 0.1 µg/mL [2, 7]: 0%
inhibition at 1 µg/mL [2, 8]: 93.3%

CCCCCCC(O)CCCCCCCCCC1OC(=O)C(N)(CO)C1O (centres unmarked) [Example 10]
3H-thymidine uptake [2, 5]: 28083 cpm
3H-thymidine uptake [2, 6]: 1844 cpm
inhibition at 0.1 µg/mL [2, 7]: 6.9%
inhibition at 1 µg/mL [2, 8]: 94.1%

CCCCCCC(O)CCCCCC/C=C/CC1OC(=O)C(N)(CO)C1O (centres unmarked) [Example 8]
Body weight [3]: 18 ± 1 g
Number of spleen cells [3]: 1.3 ± 0.2 × 10^8 cell
Wet weight spleen [3]: 103 ± 30 mg
Wet weight thymus [3]: 25 ± 9 mg
3H-thymidine uptake [2, 5]: 7262 cpm
3H-thymidine uptake [2, 6]: 1591 cpm
inhibition at 0.1 µg/mL [2, 7]: 76.1%
inhibition at 1 µg/mL [2, 8]: 94.9%
Number of PFC per 1 × 10^7 cell [4]: 6.7 ± 1.2 × 10^3 /1 × 10^7 cell
Number of PFC per spleen [4]: 8.5 ± 1.9 × 10^4 /spleen

CCCCCCC(=O)CCCCCC/C=C/CC1OC(=O)C(CO)(NC(C)=O)C1O (centres unmarked) [Example 11]
3H-thymidine uptake [2, 5]: 33948 cpm
3H-thymidine uptake [2, 6]: 4876 cpm
inhibition at 0.1 µg/mL [2, 7]: 0%
inhibition at 1 µg/mL [2, 8]: 84%

CCCCCCC(O)CCCCCC/C=C/CC(O)C(O)C(N)(CO)C(=O)O (centres unmarked) [Example 6]
inhibition at 0.0001 µg/mL ([1]; donor A/donor B, 0.0001 μg/ml): 45.2%
inhibition at 0.001 µg/mL ([1]; donor A/donor B, 0.001 μg/ml): 56.2%
inhibition at 0.01 µg/mL ([1]; donor A/donor B, 0.01 μg/ml): 81.7%
inhibition at 0.1 µg/mL ([1]; donor A/donor B, 0.1 μg/ml): 81.3%
inhibition at 1 µg/mL ([1]; donor A/donor B, 1 μg/ml): 83.9%
inhibition at 10 µg/mL ([1]; donor A/donor B, 10 μg/ml): 90%
inhibition at 0.0001 µg/mL ([1]; donor C/donor D, 0.0001 μg/ml): 14%
inhibition at 0.001 µg/mL ([1]; donor C/donor D, 0.001 μg/ml): 51.7%
inhibition at 0.01 µg/mL ([1]; donor C/donor D, 0.01 μg/ml): 77%
inhibition at 0.1 µg/mL ([1]; donor C/donor D, 0.1 μg/ml): 80.3%
inhibition at 1 µg/mL ([1]; donor C/donor D, 1 μg/ml): 86.4%
inhibition at 10 pg/mL [1]: 6.8%
IC50 [1]: 0.22 ng/mL (≈ 0.545 nM)
3H-thymidine uptake ([1]; donor A/donor B, 0.0001 μg/ml): 14191 cpm
3H-thymidine uptake ([1]; donor A/donor B, 0.001 μg/ml): 11753 cpm
3H-thymidine uptake ([1]; donor A/donor B, 0.01 μg/ml): 6335 cpm
3H-thymidine uptake ([1]; donor A/donor B, 0.1 μg/ml): 6418 cpm
3H-thymidine uptake ([1]; donor A/donor B, 1 μg/ml): 5877 cpm
3H-thymidine uptake ([1]; donor A/donor B, 10 μg/ml): 4564 cpm
3H-thymidine uptake ([1]; donor C/donor D, 0.00001 μg/ml): 16241 cpm
3H-thymidine uptake ([1]; donor C/donor D, 0.0001 μg/ml): 14996 cpm
3H-thymidine uptake ([1]; donor C/donor D, 0.001 μg/ml): 8468 cpm
3H-thymidine uptake ([1]; donor C/donor D, 0.01 μg/ml): 4082 cpm
3H-thymidine uptake ([1]; donor C/donor D, 0.1 μg/ml): 3501 cpm
3H-thymidine uptake ([1]; donor C/donor D, 1 μg/ml): 2448 cpm
3H-thymidine uptake [2, 5]: 7237 cpm
3H-thymidine uptake [2, 6]: 1346 cpm
inhibition at 0.1 µg/mL [2, 7]: 76.2%
inhibition at 1 µg/mL [2, 8]: 95.7%

CCCCCCC(O)CCCCCCCCCC(O)C(O)C(N)(CO)C(=O)O (centres unmarked) [Example 9]
3H-thymidine uptake [2, 5]: 33835 cpm
3H-thymidine uptake [2, 6]: 2247 cpm
inhibition at 0.1 µg/mL [2, 7]: 0%
inhibition at 1 µg/mL [2, 8]: 92.7%

— US5219884A, “Immunosuppressant” (Taito Co., Ltd., priority 1990, dated 1993)
